Experimental data: patent US8858994B2, “Pharmaceutical formulation comprising ezetimibe” (Ratiopharm GmbH, priority 2007, dated 2014)

Experiments:
Format in all cases: physicochemical
[1] = Determination of specific surface area (BET, single point); details: BET, single point; Sample no. 1 of example 5b)
Protocol: The specific surface area is determined by […] using BET calculation.
Specific surface area is measured by using the following Parameters: • Instrument: Pulse Chemisorbs 2700 (micromeritics) • Degassing: With out degassing • Sensitivity: No • Calculations: BET • Type: Single point system • Points: One • Sample cell: 6 cm^3 Procedure: • Sample no. 1 of example 5b) of known weight is taken in the sample transparent U shape glass tube. The sample is […] to remove all atmosphere at liquid nitrogen temperature (−196° C.). This is achieved by passing nitrogen through the sample tube, which is placed in a liquid nitrogen bath (−196° C.). The value divided by the weight of the catalyst/sample taken in the tube gives the surface area of the sample. BET Surface Area: • Surface area determination is an important factor in determining the catalyst performance, a method of assessing the efficiency of the catalyst support and promoter. […]
Is a straight line (in the range of P/P0:0.05-0.3) with slope (C−1)/(VmC) and intercept 1/VmC. By knowing these intercept and slope values calculated and further specific surface area can be calculated as follows Specific surface area (m^2/g)={[Vm×NA]/[22414×Wt]}×Am • Where, • Vm=monolayer volume in ml at STP • NA=Avogadro number • Wt=Weight of the catalyst • Am=mean cross sectional area of adsorbate molecule ([…] for N2

[2] = Particle size determination according to Dry Powder Method (Malvern Master sizer S); details: ezetimibe used in Examples 1, 3 and 4, in µm (unit assumed)
From the text: a) Particle Size Determination According to “Dry Powder Method”.
Typical Instrumental Conditions:
Pour the small volume sample in Drypowder Sampler unit. Set the feed rate & air pressure with the help of adjustable knob. And start the measurement until to get the obscuration between 15 and 30. Pass the laser beam through the sample cell to measure the particle size distribution and record the data into a histogram then report the results at 10%, 50% and 90% level of particles size distribution.
Note: Ensure the Laser power should be more than 60%.

[3] = Particle size determination according to Wet Method (Malvern laser diffraction); details: dioctyl sulfosuccinate sodium salt in n-hexane
From the text: b) Particle Size Determination According to “Wet Method”. Ezetimibe Samples PSD Measurement by Malvern Laser Diffraction
A Malvern Laser Diffraction instrument was used to characterize the particle size distribution of ezetimibe. A Mastersizer S model equipped with a small cell dispersion unit MSI with a digital dispersion unit controller was used. The measurement was done using range lens 300RF (working range […]), beam length: 2.40 mm and presentation 3NHE. In this case, a solution of dioctyl sulfosuccinate sodium salt in n-hexane was used as a dilution medium. The measurement was started after 1 minute of recirculation after suspension addition into measurement cell at speed rate 2000+−10 rpm. The suspension was prepared of ˜0.1 g sample in solution 0.065% dioctyl sulfosuccinate sodium salt in n-hexane by vortex for 10 seconds and by sonication for 30 seconds. According to the accepted rules of Good Manufacture Procedures, the sample of ezetimibe is preferably measured after a successful blank measurement (% obscuration NMT 0.1%) is performed.

SMILES | Specific surface area [1] | d(0.1) [2] | d(0.5) [2] | d(0.9) [2] | d(0.1) [3] | d(0.5) [3] | d(0.9) [3]
O=C1[C@H](CC[C@H](O)c2ccc(F)cc2)[C@@H](c2ccc(O)cc2)N1c1ccc(F)cc1 [ezetimibe, 1-(4-fluorophenyl)-3(R)-[3-(4-fluorophenyl)-3(S)-hydroxypropyl]-4(S)-(4-hydroxyphenyl)-2-azetidinone] | 1.24 m^2/gram | – | – | – | – | – | –
O=C1[C@H](CC[C@H](O)c2ccc(F)cc2)[C@@H](c2ccc(O)cc2)N1c1ccc(F)cc1 [Sample 3 of Example 5a] | – | 3.349 | 6.356 | 11.429 | – | – | –
O=C1[C@H](CC[C@H](O)c2ccc(F)cc2)[C@@H](c2ccc(O)cc2)N1c1ccc(F)cc1 [Sample 4] | – | – | – | – | 2.02 μm | 4.11 μm | 8.21 μm
O=C1[C@H](CC[C@H](O)c2ccc(F)cc2)[C@@H](c2ccc(O)cc2)N1c1ccc(F)cc1 [Sample 5] | – | – | – | – | 2.70 μm | 6.76 μm | 16.47 μm
